This is an account of results in patent US4290954A, “Tetrahydroxanthone derivatives” (Kowa Company Limited, priority 1978, dated 1981).

One data set deals with peritoneal cells. Put plainly: Inhibitory effects on histamine release (sensitized rat peritoneal cells, OA challenge). As to conditions: 10 min at 37° C., OA added simultaneously; for minimal effective concentration: 10 min, read-out: Inhibition of Histamine release (lowest effective concentration to inhibit the release of histamine). The class given is cell-based, male Sprague-Dawley (SD) rat. The protocol:
An anti-ovalbumin (OA) mouse serum (IgE like antibody, PCA titer; 1:400-1:800) was diluted 20 times with physiological saline. A male Sprague-Dawley (SD) rat weighing 300-400 g was passively sensitized by intraperitoneal administration of 5 ml of the diluted serum. 48 Hours later, the rat was decapitated and exsanguinated. 10 ml of Tyrode's solution containing 5 units/ml of heparin was then injected into the peritoneal cavity of the rat. After mixing the solution by gentle massage for 60 seconds, the fluid in the peritoneal cavity was collected and then centrifuged for 5 minutes at 120×g to harvest peritoneal cells. The peritoneal cells were suspended in Tyrode's solution so as to adjust the concentration of 10^6 cells/ml. After preincubating 1.6 ml of the cell suspension for 4 minutes at 37° C., 0.2 ml of each test compound solution and 0.2 ml of OA solution (100 μg/ml) were added simultaneously and thereafter incubated for 10 minutes at 37° C. The reaction was terminated by ice-cooling the mixture, and the thus incubated solution was centrifuged for 5 minutes at 670×g to divide the same into a cell pellet and a supernatant liquid phase. The histamine content in each of the phases was determined by the fluorometric method of Grant et al*. Each tested pharmaceutical compound was used by dissolving it in Tyrode's solution prior to its use.
*Grant, J. A., Settle, L., Whorton, E. B. and Dupree, E., Complement-mediated releast of histamine from human basophils: II. Biochemical characterization of the reaction, J. Immunol., 117, 450 (1976)
The results of tests (1) and (2) are shown in Table 1 in which each figure in the "Inhibition of Histamine Release" column denotes the lowest effective concentration to inhibit the release of histamine.

Data set [1] has as its system passive cutaneous anaphylaxis (PCA). Put plainly: Inhibitory effects on passive cutaneous anaphylaxis (PCA). The class given is in vivo, male SD rat. The following applies: 100 mg/kg orally one hour prior to the antigen challenge, rat; for inhibition in vivo at 100 mg/kg: po, 1 h, read-out: P C A (p.o), degree of inhibition. The protocol: A male SD rat weighing about 300 g was used, whose hair on the back had been shaved with an electric clipper. The back skin was passively sensitized by intradermal injection of 0.1 ml of anti-OA mouse serum (IgE like antibody) which had been diluted to three concentration levels. 4 Hours later, the rat was challenged by intravenous injection of an antigen solution of 2 ml/kg containing OA (1 mg/ml) and Evans blue (0.5 mg/ml). 30 Minutes after the antigen challenge, the rat was decapitated and exsanguinated. Then, the skin was reflected, and the area of blue spots was measured in milimeters by multiplying the longer diameter by the shorter diameter. […] The degree of inhibition of the test compound is expressed by the following notations.
±: 0-25% inhibition with no significant difference from the control
±: 25-50% inhibition with a significant difference from the control
++: 50-75% inhibition with a significant difference from the control
+++: 75-100% inhibition with a significant difference from the control
Each test pharmaceutical compound was suspended in a 0.2% carboxymethylcellulose solution and administered orally at a rate of 100 mg/kg one hour prior to the antigen challenge. Disodium cromoglycate which was known as an anti-allergic drug was employed as a control or reference substance.

A short description of data set [2]: Acute toxic test (LD50, up-down method). As to conditions: in vivo; oral, male SD rat, 72 hours after administration. The protocol: Each of the compounds shown in Table 2 was suspended in a 0.5% carboxymethylcellulose solution and administered orally to a male SD rat (5 weeks old). Upon the lapse of 72 hours after the administration, the LD50 value was determined by the up-down method.

One may read the LD50 as the dose at which mortality reaches 50%. A high value points to lower toxicity.

Take `CC(C)(C)C1CCc2oc3ccc(C(=O)Nc4nnn[nH]4)cc3c(=O)c2C1` (stereo not drawn) [2-CONHTz 7-tert.Bu, 7-(t-butyl)-5,6,7,8-tetrahydro-N-(5'-tetrazolyl)-9-oxo-xanthene-2-carboxylic acid amide]: in the data set with peritoneal cells, the minimal effective concentration is 1 µg/mL. In data set [1], the inhibition in vivo at 100 mg/kg lay in the range of 0 to 25%.
For `CC(C)(C)C1CCc2oc3ccc(-c4nnn[nH]4)cc3c(=O)c2C1` (stereo not drawn) [2-Tz 7-tert.Bu, 2-(t-butyl)-1,2,3,4-tetrahydro-7-(5'-tetrazolyl)-9-xanthone], in the data set with peritoneal cells, the minimal effective concentration amounted to 0.1 µg/mL.
As to `O=c1c2c(oc3cc(-c4nnn[nH]4)ccc13)CCCC2` [Example 3-Tz, 5,6,7,8-tetrahydro-3-(5'-tetrazolyl)-9-xanthone], the minimal effective concentration with peritoneal cells came to 0.3 µg/mL. Further, the inhibition in vivo at 100 mg/kg in data set [1] lay in the range of 50 to 75%.
For `O=C(OC1CCc2oc3ccc(-c4nnn[nH]4)cc3c(=O)c2C1)c1ccccc1` (stereo not drawn), the minimal effective concentration in the data set on peritoneal cells worked out at 10 µg/mL.
In data set [2], `Cc1ccc2c(=O)c3c(oc2c1)CCC(C(=O)Nc1ccccc1C(=O)O)C3` (stereo not drawn) [drawing 26] showed a 50% lethal dose (LD50) at 72 h above 4000 mg/kg.
On to `O=C(O)C1CCc2oc3ccc(-c4nnn[nH]4)cc3c(=O)c2C1` (stereo not drawn) [2-Tz 7-COOH], for which, in the data set with peritoneal cells, the minimal effective concentration was 0.01 µg/mL.
Regarding `Cc1cc(C(=O)O)cc2c(=O)c3c(oc12)CCCC3` [2-COOH 4-CH3, 4-methyl-5,6,7,8-tetrahydro-9-oxo-xanthene-2-carboxylic acid], the inhibition in vivo at 100 mg/kg in data set [1] lay within 50 to 75%.
As for `Cc1ccc2c(=O)c3c(oc2c1)CCC(c1nnn[nH]1)C3` (stereo not drawn) [3-CH3 7-Tz, 6-Methyl-1,2,3,4-tetrahydro-2-(5'-tetrazolyl)-9-oxo-xanthene], the minimal effective concentration in the data set with peritoneal cells is 1 µg/mL.
Turning to `O=C(Nc1ccccc1C(=O)O)c1ccc2oc3c(c(=O)c2c1)CCCC3` [drawing 25], in data set [2], the LD50 at 72 h is above 4000 mg/kg.
`Cc1ccc2c(=O)c3c(oc2c1)CCC(C(=O)Nc1nnn[nH]1)C3` (stereo not drawn) [3-CH3 7-CONHTz]: in the data set on peritoneal cells, the minimal effective concentration stood at 3 µg/mL. For the same compound, the inhibition in vivo at 100 mg/kg in data set [1] is 0 to 25%.
The matching figures for `O=C(O)c1cc(=O)c2c(OCC(O)COc3cccc4oc(C(=O)O)cc(=O)c34)cccc2o1` [Disodium cromoglycate, reference compound]: 3 µg/mL and 0 to 25%.
`CC1CCc2oc3ccc(C(=O)O)cc3c(=O)c2C1` (stereo not drawn) [2-COOH 7-CH3, 7-methyl-5,6,7,8-tetrahydro-9-oxo-xanthene-2-carboxylic acid]: the minimal effective concentration in the data set on peritoneal cells was found to be 0.3 µg/mL.
Take `O=c1c2c(oc3ccc(-c4nnn[nH]4)cc13)CCCC2` [Example 2-Tz, 1,2,3,4-Tetrahydro-7-(5'-tetrazolyl)-9-xanthone]: the LD50 at 72 h in data set [2] was above 4000 mg/kg. Also, in the data set on peritoneal cells, the minimal effective concentration worked out at 0.01 µg/mL.
In the case of `CC1CCc2oc3cc(-c4nnn[nH]4)ccc3c(=O)c2C1` (stereo not drawn) [3-Tz 7-CH3, 2-methyl-1,2,3,4-tetrahydro-6-(5'-tetrazolyl)-9-xanthone], the inhibition in vivo at 100 mg/kg in data set [1] lay in the range of 50 to 75%.
As to `O=C(O)c1ccc2c(=O)c3c(oc2c1)CCCC3` [Example 3-COOH, 5,6,7,8-tetrahydro-9-oxo-xanthene-3-carboxylic acid], the minimal effective concentration in the data set with peritoneal cells was found to be 10 µg/mL.
As to `CC(C)(C)C1CCc2oc3ccc(C(=O)O)cc3c(=O)c2C1` (stereo not drawn) [2-COOH 7-tert.Bu, 7-(t-butyl)-5,6,7,8-tetrahydro-9-oxo-xanthene-2-carboxylic acid], the minimal effective concentration in the data set on peritoneal cells was found to be 0.3 µg/mL. Also, the inhibition in vivo at 100 mg/kg in data set [1] lay in the range of 75 to 100%.
`O=C(Nc1nnn[nH]1)c1ccc2oc3c(c(=O)c2c1)CCCC3` [Example 2-CONHTz, 5,6,7,8-tetrahydro-N-(5'-tetrazolyl)-9-oxo-xanthene-2-carboxylic acid amide]: in the data set with peritoneal cells, the minimal effective concentration was determined as 0.1 µg/mL.
Take `CC1CCc2oc3ccc(C(=O)Nc4ccccc4C(=O)O)cc3c(=O)c2C1` (stereo not drawn): in the data set on peritoneal cells, the minimal effective concentration was determined as 0.3 µg/mL. Further, the inhibition in vivo at 100 mg/kg in data set [1] lay within 0 to 25%.
In the case of `O=C(Nc1ccccc1C(=O)O)c1ccc2oc3c(c(=O)c2c1)CCCC3` [drawing 20], the minimal effective concentration in the data set with peritoneal cells came to 1 µg/mL. Further, the “P C A (p.o), degree of inhibition” value in data set [1] was “+ +”.
For the compound `Cc1cc(-c2nnn[nH]2)cc2c(=O)c3c(oc12)CCCC3` [2-Tz 4-CH3, 4-methyl-5,6,7,8-tetrahydro-2-(5'-tetrazolyl)-9-xanthone], the minimal effective concentration in the data set with peritoneal cells came to 0.1 µg/mL.
Still for that read-out and setting: then `Cc1ccc2c(=O)c3c(oc2c1)CCC(C(=O)Nc1ccccc1C(=O)O)C3` (stereo not drawn) [drawing 19], with 3 µg/mL.
In data set [2], `O=C(O)c1ccc2oc3c(c(=O)c2c1)CCCC3` [Example 2-COOH, 5,6,7,8-Tetrahydro-9-oxo-xanthene-2-carboxylic acid] gave a median lethal dose (LD50) at 72 h above 4000 mg/kg. Besides, the minimal effective concentration with peritoneal cells was determined as 10 µg/mL.
Take `CC1CCc2oc3ccc(-c4nn[nH]n4)cc3c(=O)c2C1` (stereo not drawn) [2-Tz 7-CH3, 2-methyl-1,2,3,4-tetrahydro-7-(5'tetrazolyl)-9-xanthone]: the “Inhibition of Histamine release (lowest effective concentration to inhibit the release of histamine)” value with peritoneal cells turned out to be 0.01 µg/mL. For the same compound, the “P C A (p.o), degree of inhibition” value in data set [1] is reported as “± (0-25% inhibition with no significant difference from the control)”.
